The values below come from patent US10351525B2, “Beta lactamase inhibitors” (Oxford University Innovation Limited, priority 2014, dated 2019).

One may read the IC50 as the midpoint of a concentration-inhibition curve. Low values mean greater potency in that assay, high ones weaker potency in that assay. As a reminder, the MIC is the lowest concentration found to suppress growth.

For one experiment, the target named is T1, VIM-1 (Pseudomonas aeruginosa, UniProt A0A0F7KYQ8).
T1 construct: made in house; host or cells: Escherichia coli
The experiment can be described thus: MBL screening assay (IC50), VIM-1. The class given is biochemical. The procedure: (§1) Recombinant forms of NDM-1, NDM-1 M67C, VIM-1, VIM-2, SPM-1, IMP-1 and BcII MBLs were produced in Escherichia coli as described in J. Med. Chem. 56, 6945-6953 (2013) and Makena et al Chem MechCHem 8, 1923-9 (2013). Purified VIM-2 protein was dialysed into fresh crystallization buffer (50 mM HEPES pH 7.5, 150 mM NaCl and […], concentrated to 7.5 mg/mL and used for crystallographic analyses.
(§2) Kinetic and inhibition analyses and UV-VIS studies^16 against bacterial MBLs were performed as described by Van Berkel et al in J. Med. Chem. 56, 6945-6953 (2013) and Makena et al Chem MechCHem 8, 1923-9 (2013).
(§3) The experiments were performed by using a NovaStar microplate reader (using path length correction) and were performed at r.t. (24-25° C.). All enzymes and substrates were dissolved in the assay buffer: 50 mM HEPES-NaOH buffer (pH 7.2) supplemented with 1 μg/mL BSA (to minimize the denaturation of the enzyme), 1 μM ZnSO4 and 0.01% Triton 100. Screening was carried out against a panel of MBLs including NDM-1, VIM-1, VIM-2, SPM-1 (Sao Paulo MBL-1) and IMP-1 and the non-clinically relevant model MBL Bacillus cereus (BcII).
(§4) The kinetic values determined were the means from at least three independent measurements. […] The IC50 values were determined from the plot of activity (steady state rate) versus inhibitor concentration using the same software. […]

A further experiment concerns the target PBP6 (dacC) from E. coli (Escherichia coli, UniProt P08506). The experiment can be described thus: Inhibition studies for penicillin binding proteins, PBP6. For Inhibition verdict: key: N.I.—not inhibited. Conditions: for Inhibition verdict: 100 μM; for remaining activity at 100 µM: read-out: RA (residual activity). In kind it is biochemical. The procedure:
(§5) To investigate the selectivity of ML302/ML302F for bacterial MBLs, activity was tested against TEM-1 (a Class A SBL), PBP-5 (penicillin-binding protein 5 or dacA) and PBP-6 (penicillin-binding protein 6, or dacC) from E. coli, hHAT (human histone acetyltransferase) and hHDAC (human histone deacetylase). TEM-1, PBP-5 and -6 and hHAT are known to be inhibited by rhodanines. Selectively against hACE-2 (Angiotensin converting enzyme 2) and hHAGH (Hydroxyacylglutathione hydrolase, human Glyoxylase II) was also tested.
The inhibition analyses were performed using the method previously described for PBP-3 (van Berkel, S. S. et al. Binding of (5 S)-penicilloic acid to penicillin binding protein 3.ACS Chem. Biol. 8, 2112-2116 (2013)). In brief: ML302 and ML302F were initially screened at a single concentration (100 μM) in duplicate. Inhibition of the PBP acylation rate by the chromogenic β-lactam Nitrocefin was determined by pre-incubation of the appropriate amount of enzyme (dacA 2 μM and dacC 6.8 μM, respectively) and inhibitor in the assay buffer (50 mM HEPES-NaOH buffer (pH 7.2) supplemented with 200 mM NaCl and 0.01% Triton 100) for 10 min. at r.t. prior to the initiation of the assay by the addition of nitrocefin (100 μM final concentration). The hydrolysis of Nitrocefin was monitored by following the variation in absorbance at 492 nm using 96 well flat bottom plates (UV-STAR Microplate (655801) or Greiner Bio-One). The experiments were performed using a PHERAstar FS—BMG Labtech microplate reader (using path length correction) at r.t. (24-25° C.). All enzymes and inhibitors were prepared in the assay buffer.

In a further experiment the test system is hHDAC. The experiment can be described thus: Inhibition studies hHDAC. For Inhibition verdict: key: N.I.—not inhibited. In kind it is biochemical, human. Here is the method:
as §5
The inhibition analyses for human histone acetyltransferases (HAT), HDAC hHDAC (human histone deacetylase), hACE-2 (Angiotensin converting enzyme 2) and hHAGH (Hydroxyacylglutathione hydrolase, human Glyoxylase II) were performed using the commercially available HAT Assay Kit (Active Motif, catalogue No. 56100 (2009)), hHDAC (Active Motif, catalogue No. 56200 (2013)), hACE-2 (ACE-2 (R&D Systems) and hHAGH ((R&D Systems).

The next experiment addresses T2, IMP-1 (Serratia marcescens, UniProt P52699).
T2 construct: made in house; host or cells: Escherichia coli
The experiment can be described thus: MBL screening assay (IC50), IMP-1. The class given is biochemical. The procedure:
as §1, §2, §3, §4

The test system of another experiment is P. aeruginosa 15 (14). The experiment can be described thus: MIC of MEM with and without ML302F (1:8), VIM-2 producer. In kind it is cell-based. Conditions: Pseudomonas aeruginosa; P. aeruginosa 15 (14) (VIM-2); MEM alone or with ML302F (1:8). Here is the method: (§6) In a further study, antimicrobial activities of MEM and ML302F alone and in combination were assessed in-vitro against 31 VIM-producing clinical isolates.

The subject of the next experiment is P. aeruginosa 30. The description is as above. The class given is cell-based. Conditions: Pseudomonas aeruginosa; P. aeruginosa 30 (VIM-2); MEM alone or with ML302F (1:8). Here is the method:
as §6

Another experiment relates to P. aeruginosa 12 (14). The description is as above. In kind it is cell-based. Conditions: Pseudomonas aeruginosa. Here is the method:
as §6

For the next experiment, the system named is P. aeruginosa 8 (13). Described as above. As to conditions: Pseudomonas aeruginosa. The class given is cell-based. The procedure:
as §6

In the next experiment the test system is P. aeruginosa 11 (14). The experiment is described as above. As to conditions: Pseudomonas aeruginosa. The class given is cell-based. Here is the method: as §6
For the next experiment, the system named is P. aeruginosa 13 (14). The description is as above. The class given is cell-based. As to conditions: Pseudomonas aeruginosa; P. aeruginosa 13 (14) (VIM-2); MEM alone or with ML302F (1:8). The procedure: as §6
A further experiment deals with P. aeruginosa 16 (14). The description is as above. In kind it is cell-based. As to conditions: Pseudomonas aeruginosa; P. aeruginosa 16 (14) (VIM-2); MEM alone or with ML302F (1:8). The procedure:
as §6

In a further experiment the test system is P. aeruginosa 50. The description is as above. In kind it is cell-based. As to conditions: Pseudomonas aeruginosa; P. aeruginosa 50 (VIM-2); MEM alone or with ML302F (1:8). Here is the method:
as §6

The subject of the next experiment is P. aeruginosa 3 (13). Described as above. The class given is cell-based. As to conditions: Pseudomonas aeruginosa; P. aeruginosa 3 (13) (VIM-2); MEM alone or with ML302F (1:8). The procedure: as §6

Chain of PBP6 (dacC) from E. coli (P08506 28-400): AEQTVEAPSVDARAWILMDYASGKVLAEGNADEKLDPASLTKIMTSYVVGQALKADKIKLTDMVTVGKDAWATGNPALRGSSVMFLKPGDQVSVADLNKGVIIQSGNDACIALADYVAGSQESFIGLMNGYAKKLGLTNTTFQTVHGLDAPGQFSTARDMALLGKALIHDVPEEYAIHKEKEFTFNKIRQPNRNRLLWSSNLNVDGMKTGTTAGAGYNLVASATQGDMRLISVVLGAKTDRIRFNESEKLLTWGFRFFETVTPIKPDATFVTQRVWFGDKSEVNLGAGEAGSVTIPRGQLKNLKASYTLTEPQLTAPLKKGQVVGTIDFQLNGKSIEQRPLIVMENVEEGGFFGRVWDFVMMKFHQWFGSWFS
T2 sequence (P52699 19-246 limits assumed): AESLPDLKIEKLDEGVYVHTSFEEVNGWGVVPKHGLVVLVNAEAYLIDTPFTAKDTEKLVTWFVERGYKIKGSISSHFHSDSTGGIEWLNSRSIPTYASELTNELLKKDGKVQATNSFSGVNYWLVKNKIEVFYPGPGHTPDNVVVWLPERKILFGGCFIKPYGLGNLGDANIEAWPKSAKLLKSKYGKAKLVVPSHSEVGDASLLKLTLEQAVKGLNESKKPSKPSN

Regarding `CN1CCN(NC(=O)CN2C(=O)C(=Cc3c(Cl)ccc(Cl)c3Cl)SC2=S)CC1` (mixture of isomers) [ML302, N-(4-Methylpiperazin-1-yl)-2-(4-oxo-2-thioxo-5-(2,3,6-trichlorobenzylidene)thiazolidin-3-yl)acetamide], on VIM-1, the concentration for half-maximal inhibition (IC50) came out at 660 ± 250 nM. Besides, on PBP6 (dacC) from E. coli, the Inhibition verdict entry is on record as “N.I” and the remaining activity at 100 µM worked out at 97.7 ± 3.8%. Further, in the experiment with hHDAC, the Inhibition verdict result is “N.I” and the “RA (residual activity)” value was found to be 108 ± 3%. The same compound yielded an IC50 on IMP-1 of 175 ± 60 nM.

Turning to `O=C(O)C(S)=Cc1c(Cl)ccc(Cl)c1Cl` (racemic) [ML302F, 2-Mercapto-3-(2,3,6-trichlorophenyl)acrylic acid], the half-maximal inhibitory concentration (IC50) was found to be 440 ± 190 nM at VIM-1 and 2.88 nM on IMP-1. The Inhibition verdict result on PBP6 (dacC) from E. coli and in the experiment with hHDAC was “N.I” in each case. Besides, at PBP6 (dacC) from E. coli, the remaining activity at 100 µM amounted to 114%. For the same compound, the “RA (residual activity)” value in the experiment on hHDAC was 116 ± 7%.

Take `C[C@@H](O)[C@H]1C(=O)N2C(C(=O)O)=C(S[C@@H]3CN[C@H](C(=O)N(C)C)C3)[C@H](C)[C@H]12` [Meropenem, meropenem]: the MIC in the experiment on P. aeruginosa 15 (14) amounted to 64 µg/mL; with P. aeruginosa 30, 64 µg/mL; with P. aeruginosa 12 (14), 128 µg/mL; in the experiment on P. aeruginosa 8 (13), 128 µg/mL; with P. aeruginosa 11 (14), 128 µg/mL; with P. aeruginosa 13 (14), 32 µg/mL. Further, the MIC in the experiment on P. aeruginosa 16 (14) was 64 µg/mL; with P. aeruginosa 50, 32 µg/mL; with P. aeruginosa 3 (13), 64 µg/mL.
